Assay results taken from ChEMBL document CHEMBL1201862, “PubChem BioAssay data set” (2004).
Activity calls are given as the source filed them.

How the values were obtained:
[1] = molecular target: T1, Cytochrome P450 1A2 (Homo sapiens, UniProt P05177);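 further: PubChem cytochrome P450 panel assay, CYP1A2 panel member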
T1 sequence (P05177 whole entry): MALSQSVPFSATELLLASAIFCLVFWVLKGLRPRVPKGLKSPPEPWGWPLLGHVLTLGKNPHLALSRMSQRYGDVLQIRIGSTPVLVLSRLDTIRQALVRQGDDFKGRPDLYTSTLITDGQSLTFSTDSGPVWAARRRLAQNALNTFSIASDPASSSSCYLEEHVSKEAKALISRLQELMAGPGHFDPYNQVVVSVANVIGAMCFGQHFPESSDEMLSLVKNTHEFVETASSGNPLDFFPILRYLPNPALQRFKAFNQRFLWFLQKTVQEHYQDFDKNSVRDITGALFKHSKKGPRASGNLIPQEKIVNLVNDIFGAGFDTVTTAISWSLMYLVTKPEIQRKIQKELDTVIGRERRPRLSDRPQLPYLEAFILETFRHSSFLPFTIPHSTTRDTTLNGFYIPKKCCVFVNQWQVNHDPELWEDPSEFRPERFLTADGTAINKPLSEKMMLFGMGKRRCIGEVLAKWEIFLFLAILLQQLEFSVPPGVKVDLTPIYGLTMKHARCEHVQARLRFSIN

[2] = molecular target: T2, Corticotropin-releasing factor receptor 2/Corticotropin-releasing factor-binding protein (Homo sapiens, UniProt P24387+Q13324); assay: activators of CRF receptor 2 with binding protein – uHTS hits, confirmation (AID 602473); format: functional; conditions: read-out: EC50_Mean
T2 sequence (Q13324 whole entry): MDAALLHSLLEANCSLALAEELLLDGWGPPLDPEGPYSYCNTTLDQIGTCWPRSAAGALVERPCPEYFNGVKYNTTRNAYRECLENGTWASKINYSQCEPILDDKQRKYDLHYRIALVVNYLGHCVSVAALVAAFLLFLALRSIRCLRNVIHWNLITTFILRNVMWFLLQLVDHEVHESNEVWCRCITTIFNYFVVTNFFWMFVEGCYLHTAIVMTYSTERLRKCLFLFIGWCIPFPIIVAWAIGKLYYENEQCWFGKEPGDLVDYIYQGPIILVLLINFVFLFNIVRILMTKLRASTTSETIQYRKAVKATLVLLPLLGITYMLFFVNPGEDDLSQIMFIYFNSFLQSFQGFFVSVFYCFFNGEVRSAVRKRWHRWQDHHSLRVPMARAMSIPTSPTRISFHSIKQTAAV
T2 sequence (P24387 whole entry): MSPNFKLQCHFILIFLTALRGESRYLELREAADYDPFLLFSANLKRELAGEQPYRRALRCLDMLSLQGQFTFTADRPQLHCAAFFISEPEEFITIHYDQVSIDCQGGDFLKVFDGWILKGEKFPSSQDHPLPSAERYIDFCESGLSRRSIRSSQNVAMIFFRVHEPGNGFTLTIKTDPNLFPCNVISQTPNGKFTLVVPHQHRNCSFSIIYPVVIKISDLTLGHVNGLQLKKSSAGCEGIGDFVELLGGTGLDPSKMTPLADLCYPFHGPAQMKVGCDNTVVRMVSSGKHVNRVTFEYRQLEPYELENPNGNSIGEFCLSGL

[3] = molecular target: T2, Corticotropin-releasing factor receptor 2/Corticotropin-releasing factor-binding protein; assay: Dose Response confirmation of uHTS hits for small molecule antagonists of the CRF-binding protein and CRF-R2 receptor complex.; format: functional; conditions: read-out: IC50_Mean
[4] = molecular target: T3, Streptokinase A (Streptococcus pyogenes serotype M1, UniProt P10520); assay: S. pyogenes streptokinase expression inhibitors, potency, dose response, plasminogen activation absorbance, OD405 (AID 1914); format: functional, Streptococcus pyogenes M1 GAS;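 further: secreted streptokinase activity via plasminogen activation per viability signal from cell pellet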
T3 sequence (P10520 whole entry): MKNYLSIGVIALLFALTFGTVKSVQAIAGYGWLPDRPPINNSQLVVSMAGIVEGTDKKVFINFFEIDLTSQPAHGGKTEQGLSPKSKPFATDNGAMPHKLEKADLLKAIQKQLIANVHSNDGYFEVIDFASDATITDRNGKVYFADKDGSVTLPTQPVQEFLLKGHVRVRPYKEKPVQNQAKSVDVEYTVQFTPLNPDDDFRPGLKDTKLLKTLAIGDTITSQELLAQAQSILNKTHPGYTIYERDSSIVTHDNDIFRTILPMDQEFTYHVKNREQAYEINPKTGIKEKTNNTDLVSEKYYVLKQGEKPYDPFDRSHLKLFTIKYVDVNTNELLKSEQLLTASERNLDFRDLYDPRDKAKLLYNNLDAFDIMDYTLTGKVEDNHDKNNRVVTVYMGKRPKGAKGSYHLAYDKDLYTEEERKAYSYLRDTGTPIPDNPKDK

[5] = Luminescence Cell-Based Dose Response HTS to Identify Inhibitors of 5'UTR Stem-Loop Driven Prion Protein mRNA Translation in H4 Neuroglioblastoma Cells. [Related pubchem assays: 1827 (Project Summary), 1813 (Primary HTS)]; format: functional
[6] = system: Streptococcus; assay: Group A Streptococcus viability loss, dose response, counter-screen for streptokinase expression inhibitor project, luminescence, BacTiterGlo (AID 1915); format: functional, organism-based;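 further: potency for reduction of bacterial viability or growth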
[7] = system: Streptococcus sp. 'group A'; assay: growth inhibition of control SK(-) GAS strain, dose response, counter-screen for streptokinase expression inhibitor project, luminescence, kanamycin, BacTiterGlo, confirmation (AID 1900); format: functional, organism-based
[8] = inhibitors of firefly luciferase expression or activity, dose response, H4 neuroglioma cells, luminescence (AID 1990); format: functional, cell-based
[9] = inhibitors of SNCA 5'UTR-driven reporter translation, confirmation, H4 neuroglioma cells, luminescence (AID 1988); format: functional, cell-based
[10] = molecular target: Cytochrome P450 3A4 (Homo sapiens, UniProt P08684);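 further: CYP3A4 tested as one member of a cytochrome P450 panel screen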
Chain of Cytochrome P450 3A4 (P08684 whole entry): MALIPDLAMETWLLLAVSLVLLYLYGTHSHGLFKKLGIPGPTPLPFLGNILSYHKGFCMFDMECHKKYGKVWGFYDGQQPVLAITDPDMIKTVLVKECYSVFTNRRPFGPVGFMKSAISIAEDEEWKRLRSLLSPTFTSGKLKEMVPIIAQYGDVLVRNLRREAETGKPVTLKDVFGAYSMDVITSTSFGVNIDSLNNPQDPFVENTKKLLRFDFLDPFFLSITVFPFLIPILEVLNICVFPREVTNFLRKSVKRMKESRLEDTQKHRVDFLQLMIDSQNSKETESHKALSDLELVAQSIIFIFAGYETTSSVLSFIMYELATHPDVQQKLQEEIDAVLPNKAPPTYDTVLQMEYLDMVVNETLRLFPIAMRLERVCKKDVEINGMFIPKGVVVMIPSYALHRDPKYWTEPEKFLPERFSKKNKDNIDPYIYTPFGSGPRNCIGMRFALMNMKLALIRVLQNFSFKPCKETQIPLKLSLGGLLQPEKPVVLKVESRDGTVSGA

[11] = Luminescence Cell-Based Dose Response HTS to Identify Activators of Luciferase Translation or Activity in H4 […] Cells. [Related pubchem assays: 1829 (Project Summary), 1814 (Primary HTS)]; format: functional
[12] = system: H4; assay: Luminescence Cell-Based Dose Response HTS to Identify Activators of 5'UTR Stem-Loop Driven Prion Protein mRNA Translation in H4 Neuroglioblastoma Cells. [Related pubchem assays: 1829 (Project Summary), 1814 (Primary HTS)]; format: functional; conditions: Homo sapiens
[13] = molecular target: Cytochrome P450 2C19 (Homo sapiens, UniProt P33261); assay: Cytochrome panel assay with activity outcomes. Panel member name: p450-cyp2c19 Compounds with AC50 equal or less than 10 uM are considered active; format: functional
Chain of Cytochrome P450 2C19 (P33261 whole entry): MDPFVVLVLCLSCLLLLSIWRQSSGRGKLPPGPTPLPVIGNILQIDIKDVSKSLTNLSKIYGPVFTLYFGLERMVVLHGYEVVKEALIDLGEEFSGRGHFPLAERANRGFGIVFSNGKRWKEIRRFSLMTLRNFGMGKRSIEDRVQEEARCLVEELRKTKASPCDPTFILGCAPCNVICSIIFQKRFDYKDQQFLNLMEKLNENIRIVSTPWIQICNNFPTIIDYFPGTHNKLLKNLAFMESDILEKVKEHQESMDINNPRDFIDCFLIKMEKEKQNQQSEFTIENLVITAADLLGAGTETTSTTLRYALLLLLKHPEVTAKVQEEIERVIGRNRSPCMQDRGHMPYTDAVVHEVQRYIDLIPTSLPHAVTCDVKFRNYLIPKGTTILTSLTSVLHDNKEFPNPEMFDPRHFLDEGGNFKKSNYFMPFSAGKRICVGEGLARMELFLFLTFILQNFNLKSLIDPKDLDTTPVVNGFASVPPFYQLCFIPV

[14] = molecular target: Cytochrome P450 2C9 (Homo sapiens, UniProt P11712)
Chain of Cytochrome P450 2C9 (P11712 whole entry): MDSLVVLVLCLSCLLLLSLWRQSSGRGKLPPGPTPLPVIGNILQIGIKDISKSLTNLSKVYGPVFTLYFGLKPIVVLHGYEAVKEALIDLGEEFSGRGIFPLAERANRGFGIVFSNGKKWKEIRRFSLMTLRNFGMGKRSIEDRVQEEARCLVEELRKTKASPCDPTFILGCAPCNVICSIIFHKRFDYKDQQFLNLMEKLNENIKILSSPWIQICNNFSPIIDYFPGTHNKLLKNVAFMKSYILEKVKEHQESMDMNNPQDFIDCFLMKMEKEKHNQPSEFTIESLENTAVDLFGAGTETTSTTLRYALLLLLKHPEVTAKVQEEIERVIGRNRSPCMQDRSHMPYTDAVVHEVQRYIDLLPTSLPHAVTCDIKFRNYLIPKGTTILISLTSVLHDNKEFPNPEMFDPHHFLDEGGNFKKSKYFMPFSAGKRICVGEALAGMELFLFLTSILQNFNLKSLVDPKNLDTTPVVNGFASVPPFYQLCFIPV

Structure (SMILES): O=c1oc2c(Cl)cc(Cl)cc2cc1-c1nnc(Nc2ccccc2F)s1
- AC50 [1]: 15.8 µM (inconclusive)

Structure (SMILES): Cc1[nH]c2ccccc2c1SCCNC(=O)c1ccc(S(=O)(=O)N2CCCC2)cc1
- EC50 [2]: > 53 µM (inactive)
- IC50 [3]: > 47.1 µM (inactive)

Structure (SMILES): Cc1ccc2c(CC(=O)NCC(=O)Nc3c(C)cccc3C)coc2c1
- EC50 [2]: > 53 µM (inactive)
- IC50 [3]: > 47.1 µM (inactive)

Structure (SMILES): O=[N+]([O-])c1ccc(Cl)cc1Sc1nc2ccccc2o1
- EC50 [4]: 6.18 µM (active)
- EC50 [5]: > 120 µM (not active)
- EC50 [6]: 7.26 µM (active)
- EC50 [7]: 2.25 µM (active)
- EC50 [8]: > 120 µM (not active)
- EC50 [9]: > 120 µM (not active)

Structure (SMILES): COc1cc(NC(=S)NCCC(c2ccccc2)c2ccccc2)c(OC)cc1Cl
- EC50 [2]: > 53 µM (inactive)
- IC50 [3]: 4.69 µM (active)

Structure (SMILES): CNC(=O)CN(C1CCCCC1)S(=O)(=O)c1ccc(F)cc1
- EC50 [2]: > 53 µM (inactive)
- IC50 [3]: > 47.1 µM (inactive)

Structure (SMILES): CS(=O)(=O)N1CCC[C@@]2(CCN(c3ccccn3)C2)C1
- AC50 [10]: 20 µM (inconclusive)

Structure (SMILES): O=C(Nc1nnc(C2CC2)s1)C1Cc2ccccc2CN1S(=O)(=O)c1ccccc1F (stereo not drawn)
- EC50 [11]: 0.123 µM (active)
- EC50 [12]: > 120 µM (not active)

Structure (SMILES): Nc1cc(O)nc(SCCSc2ccccc2F)n1
- EC50 [5]: 22.3 µM (active)
- EC50 [8]: < 0.1 µM (active)
- EC50 [9]: 1.29 µM (active)

Structure (SMILES): COCCn1c(=O)c(C)nc2cncnc21
- AC50 [1]: 15.8 µM (inconclusive)
- AC50 ([13]; read-out: AC50): 39.8 µM (inconclusive)
- AC50 [14]: 31.6 µM (inconclusive)

Structure (SMILES): COc1ccccc1C(c1nnnn1C(C)(C)C)N1CCN(Cc2ccncc2)CC1 (stereo not drawn)
- AC50 [1]: 25.1 µM (inconclusive)

Structure (SMILES): COc1ccc(-n2cnc3sc(-c4ccccc4)cc3c2=O)cc1
- AC50 [1]: 3.55 µM (inconclusive)

Structure (SMILES): CCc1nc(N2CCC3(CC2)OCCO3)c2nnn(Cc3ccccc3Cl)c2n1
- AC50 [10]: 15.8 µM (inconclusive)

Structure (SMILES): CCOC(=O)C1CCCN(S(=O)(=O)c2ccccc2)C1 (stereo not drawn)
- EC50 [2]: > 53 µM (inactive)
- IC50 [3]: > 47.1 µM (inactive)

Structure (SMILES): Cc1ccc(C(=O)N2C(=O)C(c3ccccc3)Oc3ccccc32)cc1 (stereo not drawn)
- EC50 [5]: > 120 µM (not active)
- EC50 [8]: > 120 µM (not active)
- EC50 [9]: > 120 µM (not active)

Structure (SMILES): CCN1CCCC1CNC(=O)CSCc1nc(-c2ccccc2C)oc1C (stereo not drawn)
- AC50 [1]: 39.8 µM (inconclusive)
- AC50 ([13]; read-out: AC50): 28.2 µM (inconclusive)

Structure (SMILES): Cc1cccc(C(=O)N2CCN(c3ccc([N+](=O)[O-])c(NCc4ccco4)c3)CC2)c1
- AC50 [10]: 28.2 µM (inconclusive)

Structure (SMILES): COCCCNc1nc(N)c([N+](=O)[O-])c(Nc2cc(OC)ccc2OC)n1
- EC50 [5]: 13.5 µM (active)
- EC50 [8]: 17.4 µM (active)
- EC50 [9]: 17.8 µM (active)

Structure (SMILES): CCOCCCN(CC(=O)NC1CCCC1)C(=O)C(=O)Nc1ccc2c(c1)OCCO2
- EC50 [2]: > 53 µM (inactive)
- IC50 [3]: > 47.1 µM (inactive)

Structure (SMILES): c1ccc(CSc2nnc3c4ccccc4c4ccccc4c3n2)cc1
- AC50 [10]: 3.98 µM (inconclusive)

Structure (SMILES): CCN(CC)CCCCCCCCOC(=O)c1cc(OC)c(OC)c(OC)c1
- AC50 [10]: 10 µM (inconclusive)

Structure (SMILES): CCOC(=O)c1ccccc1NC1c2ccccc2C(=O)N1c1ccc(C)cn1 (stereo not drawn)
- EC50 [11]: 9.17 µM (active)
- EC50 [12]: 18.5 µM (active)

Structure (SMILES): Cc1ccccc1CN(C)C(=O)COC(=O)c1ccc2[nH]c(C)c(C)c2c1
- EC50 [2]: > 53 µM (inactive)
- IC50 [3]: > 47.1 µM (inactive)

Structure (SMILES): CCNc1ncc2nc(-c3ccc(F)cc3)c(=O)n(-c3ccccc3)c2n1
- AC50 [1]: 0.398 µM (inconclusive)

Structure (SMILES): O=C1[C@@H]2[C@H]3[C@H](O)[C@H](O)C/C(=N/OC[C@@H](O)COCc4ccco4)[C@@H]3CC[C@H]2C(=O)N1c1ccc(F)cc1F
- AC50 [10]: 3.16 µM (inconclusive)
- AC50 [13]: inconclusive

Structure (SMILES): CCNc1ncc2nc(-c3ccc(OC)cc3)c(=O)n(Cc3cccs3)c2n1
- AC50 [10]: 7.94 µM (inconclusive)
- AC50 [1]: 0.631 µM (inconclusive)

Structure (SMILES): CCS(=O)(=O)NCCc1cc2ccc(C)cc2nc1O
- AC50 [10]: 39.8 µM (inconclusive)
- AC50 ([13]; read-out: AC50): 10 µM (inconclusive)

Structure (SMILES): O=C(O)[C@H]1[C@H]2CN[C@H](C(=O)O)[C@H]21
- AC50 [1]: 31.6 µM (inconclusive)
- AC50 ([13]; read-out: AC50): 31.6 µM (inconclusive)

Structure (SMILES): COc1ccccc1-n1c(=S)sc2c(=O)n(Cc3ccco3)c(SC)nc21
- EC50 [2]: > 53 µM (inactive)
- IC50 [3]: > 47.1 µM (inactive)

Structure (SMILES): Cc1ccc(/N=C/c2nc(/C=C/c3cccc([N+](=O)[O-])c3)oc2O)cc1
- AC50 [10]: 3.16 µM (inconclusive)
- AC50 [1]: 2 µM (inconclusive)
- AC50 ([13]; read-out: AC50): 7.94 µM (inconclusive)
- AC50 [14]: 17.8 µM (inconclusive)

Structure (SMILES): S=C(Nc1ccccc1)N1CCCCC1
- AC50 [1]: 22.4 µM (inconclusive)
- AC50 ([13]; read-out: AC50): 17.8 µM (inconclusive)

Structure (SMILES): CCCCCC(=O)Nc1ccccc1N1CCOCC1
- EC50 [5]: > 120 µM (not active)
- EC50 [8]: > 120 µM (not active)
- EC50 [9]: > 120 µM (not active)

Structure (SMILES): COC(=O)c1cc(Br)c(=O)n(CCc2ccc(O)cc2)c1
- AC50 [1]: 10 µM (inconclusive)

Structure (SMILES): N#CNC(=Nc1cccc(F)c1)SCc1ccccc1
- EC50 [2]: > 53 µM (inactive)
- IC50 [3]: 14 µM (active)

Structure (SMILES): CCN(c1ccccc1)S(=O)(=O)c1ccc(NC(=S)NC(=O)c2cccs2)cc1
- AC50 [10]: 2.24 µM (inconclusive)

Structure (SMILES): O=C(Oc1ccccc1)N1CCC2(CCCN(c3cccc(-c4ccccc4)c3)C2)CC1
- AC50 [10]: 15.8 µM (inconclusive)

Structure (SMILES): CCNc1nnc(-c2ccncc2)s1
- AC50 [1]: 15.8 µM (inconclusive)
- AC50 [14]: 17.8 µM (inconclusive)

Structure (SMILES): CCOc1ccc2c(c1)s/c(=N/C(=O)C1CC1)n2C
- EC50 [11]: 0.508 µM (active)
- EC50 [12]: 63.4 µM (active)

Structure (SMILES): O=C(/C=C\Nc1ccc(S(=O)(=O)Nc2ncccn2)cc1)c1cccc2ccccc12
- EC50 [5]: > 120 µM (not active)
- EC50 [8]: 18.3 µM (active)
- EC50 [9]: > 120 µM (not active)
